# Source: the supplement of paper PMC10307832
# Tests used:
# Assay in all cases: relative viability (nuclei count vs DMSO), 5 days (fraction); higher = more cells survive
# [1] = compound: Cc1cc(Nc2cc(N3CCN(C)CC3)nc(Sc3ccc(NC(=O)C4CC4)cc3)n2)n[nH]1 [Tozasertib] + CC(=O)c1c(C)c2cnc(Nc3ccc(N4CCNCC4)cn3)nc2n(C2CCCC2)c1=O [Palbociclib] (partner 0.5 µM)
# Summary of the method: (§1)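 Relative viability divides the nuclei count in treated wells by that in vehicle wells. Lung cancer cell lines were seeded in 1536-well plates, dosed by pin tool the next day, and fixed and stained after 5 days in one step with final 0.05% Triton X-100, 1% formaldehyde and 1 ug/ml Hoechst. Dosing was a single drug or a fixed anchor-drug dose plus five library-drug doses (not always all listed) in √10 steps, and values are medians of duplicate plates imaged at 4×.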
# [2] = compound: Cc1cc(Nc2cc(N3CCN(C)CC3)nc(Sc3ccc(NC(=O)C4CC4)cc3)n2)n[nH]1 [Tozasertib] + C[C@@H](Oc1cc(-c2cnn(C3CCNCC3)c2)cnc1N)c1c(Cl)ccc(F)c1Cl [Crizotinib] (partner 1 µM)
# Summary of the method: as §1
# [3] = compound: Cc1cc(Nc2cc(N3CCN(C)CC3)nc(Sc3ccc(NC(=O)C4CC4)cc3)n2)n[nH]1 [Tozasertib] + CC(=O)Nc1cccc(-n2c(=O)n(C3CC3)c(=O)c3c(Nc4ccc(I)cc4F)n(C)c(=O)c(C)c32)c1 [Trametinib] (partner 0.02 µM)
# Summary of the method: as §1
# [4] = compound: Cc1cc(Nc2cc(N3CCN(C)CC3)nc(Sc3ccc(NC(=O)C4CC4)cc3)n2)n[nH]1 [Tozasertib] + COc1cccc2cc(-c3nc([C@H]4CC[C@H](C(=O)O)CC4)n4ncnc(N)c34)[nH]c12 [OSI-027] (partner 0.5 µM)
# Summary of the method: as §1
Cell Line,relative viability ([1]; first compound 0.004 µM),relative viability ([1]; first compound 0.01265 µM),relative viability ([1]; first compound 0.04 µM),relative viability ([1]; first compound 0.1265 µM),relative viability ([2]; first compound 0.004 µM),relative viability ([2]; first compound 0.01265 µM),relative viability ([2]; first compound 0.04 µM),relative viability ([2]; first compound 0.1265 µM),relative viability ([3]; first compound 0.004 µM),relative viability ([3]; first compound 0.01265 µM),relative viability ([3]; first compound 0.04 µM),relative viability ([3]; first compound 0.1265 µM),relative viability ([4]; first compound 0.004 µM),relative viability ([4]; first compound 0.01265 µM),relative viability ([4]; first compound 0.04 µM),relative viability ([4]; first compound 0.1265 µM)
201T,0.355,0.362,0.364,0.224,1.02,1.05,1.06,1.01,0.707,0.705,0.759,0.71,0.76,0.781,0.839,0.621
A549,–,–,–,–,0.839,0.745,0.393,0.0848,–,–,–,–,–,–,–,–
A-427,0.55,0.487,0.517,0.423,0.882,0.985,0.788,0.469,0.783,0.68,0.818,0.509,0.457,0.478,0.48,0.332
ABC-1,0.722,0.769,0.44,0.533,1.21,0.992,0.565,0.249,–,–,–,–,0.542,0.495,0.58,0.207
BEN,0.455,0.475,0.481,0.432,0.91,0.921,0.907,0.727,1.03,1.02,–,0.961,0.333,0.335,0.309,0.284
CAL-12T,0.713,0.41,0.459,0.242,0.823,0.635,0.454,0.325,0.439,0.27,0.445,0.219,0.954,0.562,0.719,0.214
COR-L23,0.309,0.297,0.274,0.161,0.695,0.667,0.453,0.412,0.613,0.599,0.609,0.332,0.747,0.726,0.635,0.538
COR-L 105,0.353,0.393,0.419,0.356,–,0.765,0.771,0.458,0.436,0.393,0.461,0.329,0.698,0.68,0.731,0.343
ChaGo-K-1,0.902,0.881,0.949,0.477,1.19,1.12,0.957,0.331,0.879,0.838,0.895,0.736,0.584,0.511,0.562,0.31
EKVX,–,0.367,0.418,0.412,0.766,–,0.932,0.802,0.369,0.301,0.339,0.422,0.692,0.671,0.734,–
EMC-BAC-2,0.542,0.501,0.514,0.433,0.803,0.704,0.461,0.23,0.873,0.826,0.928,–,0.381,0.389,0.381,0.262
EPLC-272H,0.367,0.313,0.318,0.356,0.851,1.03,0.823,–,0.263,0.308,0.32,0.259,0.289,0.256,0.288,0.265
H3255,0.33,0.292,0.315,0.324,0.801,0.765,1.01,0.769,0.578,0.618,0.552,0.659,0.452,0.492,0.61,0.459
HARA,0.333,0.248,0.262,0.207,–,0.984,0.776,0.14,0.63,0.565,0.608,0.283,0.467,0.447,0.583,0.343
HCC-15,0.752,0.675,0.73,0.621,0.872,0.85,0.738,0.773,0.386,0.359,0.405,0.375,0.745,0.64,0.665,0.419
HCC-44,1.03,0.954,1.02,0.874,0.861,0.891,0.801,0.705,–,1.03,1.22,1,0.605,0.485,0.606,0.341
HCC-78,0.404,0.466,0.451,0.484,0.333,0.324,0.356,0.288,0.821,0.478,0.824,0.632,0.387,0.357,0.363,0.361
HCC-366,0.4,0.391,0.502,0.227,–,0.472,0.257,0.039,0.304,0.323,0.385,0.15,0.991,0.862,1.01,0.575
HCC-827,0.511,0.516,0.603,0.493,1.02,0.82,0.927,0.719,0.493,0.481,0.663,0.512,0.314,–,0.789,0.582
HOP-62,0.53,0.483,0.556,0.439,1.03,0.964,0.941,0.776,0.356,0.401,0.401,0.372,0.902,0.844,0.941,0.793
LC-2-ad,0.503,0.529,0.442,0.477,0.441,0.452,0.405,0.369,0.942,0.816,0.934,0.743,0.941,0.692,0.734,0.374
